In PubChem BioAssay (NCI) one finds TGI data, which are given here for 20 compounds.

As a reminder, the TGI is the concentration at which net growth stops. A low value points to more potent growth arrest.

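In this assay, cells in 96-well plates receive the compound at five concentrations for 48 hours. Endpoints are linearly interpolated between the surrounding concentrations. TGI: concentration producing complete growth inhibition.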

What all share (assay): DTP human tumour cell line panel, 48 h
Experiment [1] relates to DLD-1 colon.
The test system of experiment [2] is DMS 273 small cell lung.
The subject of experiment [3] is HOP-18 NSCLC.
For experiment [4], the system named is KM20L2 colon.
Experiment [5] has as its system M19-MEL melanoma.
Experiment [6] concerns SNB-78 CNS.
For experiment [7], the system named is XF 498 CNS.
The test system of experiment [8] is MDA-N.
Experiment [9] relates to RXF-631 renal.

With `COCN1COCN(C)C1=O`, the TGI in experiment [1], in experiment [2], in experiment [3], in experiment [4], in [5] and in experiment [6] was over 100 µM each time. The compound further returned a TGI in [7] of over 100 µM.

Take `COc1ccc2c(c1OC)C(=O)C2`: the TGI in experiment [2], in experiment [3], in experiment [4], in experiment [5] and in [7] was over 100 µM each time.

Compound `COC(=O)c1csc(-c2csc(CCNC(=O)OC(C)(C)C)n2)n1` returned a TGI in experiment [8] of over 100 µM.

For the compound `O=C(NCCCN1CCN(CCCNC(=O)c2cccc3ccccc23)CC1)c1cccc2ccccc12`, the TGI is over 100 µM in [3]; 73.5 µM in experiment [4]; over 100 µM in experiment [5]; over 100 µM in [9]; over 100 µM in experiment [6]; 93.9 µM in experiment [7].

For the compound `O=C(CC1(O)C(=O)Nc2ccccc21)c1ccc(Cl)c(Cl)c1` (centres undefined), the TGI in [1], in [2], in experiment [4], in experiment [5] and in experiment [6] was over 100 µM each time.

On to `COc1ccc2[nH]c3c(C)c4c(c(C)c3c2c1)CN(C)C=C4`, for which the TGI came to 32.2 µM in [1]; 10.3 µM in experiment [2]; 47.7 µM in [3]; 21.1 µM in experiment [4]; 5.53 µM in [5]; 34.6 µM in [8]. Moreover, the TGI in experiment [6] came out at 4.91 µM; in experiment [7] it was 5.78 µM.

On to `O=C1OC(c2ccc([N+](=O)[O-])cc2)=N/C1=C\c1ccc(Cl)cc1`, for which the TGI in experiment [8] was over 100 µM.

For `S=C1SCC2CCCN12` (centres undefined), the TGI in experiment [1], in experiment [2], in experiment [3], in experiment [4], in [5] and in experiment [9] was over 100 µM each time. The TGI in [6] was over 100 µM.

Regarding `Cc1nc(-n2nc(-c3ccccc3)cc2-c2ccccc2)sc1C(=O)CC(=O)C(=O)Nc1ccc(Cl)c(Cl)c1`, the TGI in experiment [1], in experiment [2], in experiment [3], in experiment [4], in experiment [5] and in experiment [9] was over 100 µM each time. This compound also gave a total growth inhibition concentration (TGI) in experiment [6] of over 100 µM.

For the compound `CC1=CC(=O)NP(=O)(Oc2ccc(Cl)cc2)N1` (centres undefined), the TGI in [1], in experiment [2], in experiment [3], in [4], in experiment [5] and in [6] was over 100 µM in each case. In experiment [7], this compound registered a TGI of over 100 µM.

Turning to `COc1ccc2nc3cc(Cl)ccc3c(Nc3ccccc3-c3ccccc3Nc3c4ccc(Cl)cc4nc4ccc(OC)cc34)c2c1`, the TGI in [1] is over 47.3 µM; in experiment [2], over 54.9 µM; in experiment [3], over 100 µM; in experiment [4] it was over 81.4 µM; in [5], over 93.3 µM; in [8], 24.7 µM. The concentration for total growth inhibition (TGI) in [9] was over 100 µM; in experiment [6], over 100 µM; in [7], over 76.2 µM.

As to `CC(C)(C)C1=CC(=N/N=c2\scc(-c3ccccc3)n2Cc2ccccc2)C=C(C(C)(C)C)C1=O`, the concentration for total growth inhibition (TGI) in [2], in experiment [4], in experiment [5] and in [7] was over 100 µM each time.

On to `CC(=O)OC1(Sc2ccccc2)CC2[C@H]3COC(C)(C)O[C@H]3CC[C@@]2(C)CC1=O` (some centres undefined), for which the TGI in experiment [1], in experiment [2], in experiment [4], in [5], in experiment [9] and in experiment [6] was over 100 µM each time. The compound further had a total growth inhibition concentration (TGI) in experiment [7] of 57.3 µM.

Turning to `COc1ccc(-c2cc(=O)c3c(O)c(O)c(OC)cc3o2)cc1O`, the concentration for total growth inhibition (TGI) in experiment [1], in [2], in experiment [3], in [4], in experiment [5] and in experiment [9] was over 100 µM each time. This compound also gave a TGI in experiment [7] of over 100 µM.

As for `Cc1nc2ccccc2c(=O)n1/N=C(\N=Nc1ccc(Cl)cc1)c1cccc(-c2ccco2)c1`, the TGI in experiment [1], in [2], in [3], in experiment [4] and in experiment [5] was over 100 µM each time.

For the compound `NCC(=O)Nc1ccc(Cl)cc1C(=O)c1ccc[nH]1`, in experiment [8], the TGI was over 100 µM.

`CC(C)(C)c1cc(C2c3cc4c(cc3OC(O)(CO)C2C(=O)O)OCO4)cc(C(C)(C)C)c1O` (centres undefined) (tested in a mixture with another compound): the TGI was found to be 33.2 µM in experiment [1]; 41 µM in experiment [2]; 20.3 µM in experiment [3]; 33.4 µM in experiment [4]; 28.6 µM in experiment [5]; 43.3 µM in [9].

On to `Cc1cccc(NC(=O)c2c(N)[n+]([O-])c3ccccc3[n+]2[O-])c1`, for which the TGI in [1] amounted to 26 µM; in [2], 22.1 µM; in experiment [3] it was 32.2 µM; in [4], 30.5 µM; in [5], 23.8 µM; in experiment [9], 3.24 µM. Moreover, the TGI in experiment [6] came out at 35.4 µM; in experiment [7] it was 24.5 µM.

Turning to `CC1(Cl)C(=O)NC(=O)N([C@H]2C[C@H](O)[C@@H](CO)O2)C1N=[N+]=[N-]` (some centres undefined), the TGI in [1], in experiment [2], in [3], in experiment [4], in experiment [5] and in experiment [9] was over 100 µM in each case. For the same compound, the TGI in experiment [6] and in [7] was over 100 µM in each case.

`O=C(n1c2ccccc2c2n[nH]c(=S)nc21)C(F)(F)F`: the TGI in experiment [1], in [2], in experiment [5], in experiment [6] and in [7] was over 100 µM each time.
